Assay results taken from US20100249082A1, “MODULATORS OF HYPOXIA INDUCIBLE FACTOR-1 AND RELATED USES” (Bionaut Pharmaceuticals INC., priority 2007, published 2010).

Columns and labels:
[1] = in vivo; cited from earlier work
Na^+, K^+-ATPase [2] = assay: cell-based; conditions: for Sample Solubility: CHO-K1 screen test wells, 1% DMSO; for Inhibition (%) / Normalized Uptake (%): CHO-K1
Description: (§1) Compounds were screened using Ion Channel Research (ICR) technology and a non-radioactive Rubidium Uptake Assay
(§2) For all the test compounds and standard blockers, 100× solutions were used to prepare 1× test doses for Na^+, K^+-ATPase screen in CHO cell line. The final DMSO concentration in each well was 1%.
(§3) • 1. […] Rb^+ Uptake: Cells were washed with 200 μl of Rb^+ Uptake Buffer once and R^+ loaded by application of 198 μl R^+ Uptake Buffer. Compounds were added at 2 μl/well of a 100× stock solution in 100% DMSO in the uptake buffer followed by incubation for 30 minutes at room temperature (c. 22° C.). The total volume in each well was 200 μl (198 μl of R^+ Uptake Buffer and 2 μl of the 100× compound). The 100× compound solution gets diluted in R^+ Uptake Buffer to 1× and the DMSO to 1%. • 3. Wash: Residual R^+ and compound were removed by four successive washes with 200 μl of SPA-Wash Buffer. • 4. Cell Lysis: Intracellular samples were obtained by whole cell lysis with the application of 200 μl Lysis Solution. • 5. Analysis: The level of R^+ in the intracellular samples was measured by ICR8000 (Aurora Biomed Inc., Vancouver, Canada). using flame atomic absorption spectroscopy.

Na^+, K^+-ATPase [3] = biological target: Na^+, K^+-ATPase (Cricetulus griseus, UniProt A0A8C2N4Z0); assay: cell-based; conditions: for inhibition at 0.5 µM / inhibition at 1 µM / inhibition at 5 µM / inhibition at 10 µM / inhibition at 50 µM / inhibition at 100 µM / inhibition at 200 µM / inhibition at 500 µM: CHO-K1; for remaining activity at 0.5 µM / remaining activity at 1 µM / remaining activity at 5 µM / remaining activity at 10 µM / remaining activity at 50 µM / remaining activity at 100 µM / remaining activity at 200 µM / remaining activity at 500 µM: CHO-K1, 0.5 h, read-out: Normalized Uptake (%)
Description: as §1, §2, §3

Na^+, K^+-ATPase [4] = biological target: T1, Na^+, K^+-ATPase (Homo sapiens, UniProt P05023); assay: cell-based; conditions: for inhibition at 0.01 µM / inhibition at 0.1 µM / inhibition at 1 µM / inhibition at 5 µM / inhibition at 10 µM / inhibition at 50 µM: HEK293, HEK-293; for inhibition at 0.01 µM: Log[drug](M) −8.0; for inhibition at 5 µM: Log[drug](M) −5.3; for inhibition at 10 µM: Log[drug](M) −5.0; for inhibition at 50 µM: Log[drug](M) −4.3; for Rank order: HEK-293, ranked on potency (IC50 value); for Sample Solubility: HEK-293 screen test wells, 1% DMSO
T1 construct: The HEK-293 cell line endogenously expressing Na^+, K^+-ATPase; endogenous in cells; host or cells: HEK-293
Description: Cells were plated at a density of 50,000 cells/well in 96-well microplates and incubated at 37° C., 5% CO2 until 80-90% confluency was attained

Row | SMILES | Sample Solubility (Na^+, K^+-ATPase [2]) | IC50 (Na^+, K^+-ATPase [3]) [µM] | inhibition at 0.5 µM (Na^+, K^+-ATPase [3]) [%] | remaining activity at 0.5 µM (Na^+, K^+-ATPase [3]) [%] | IC50 (Na^+, K^+-ATPase [4]) [µM] | inhibition at 0.01 µM (Na^+, K^+-ATPase [4]) [%] | inhibition at 0.1 µM (Na^+, K^+-ATPase [4]; Log[drug](M) −7.0) [%] | inhibition at 0.1 µM (Na^+, K^+-ATPase [4]; Log[drug](M) −7.3) [%] | inhibition at 1 µM (Na^+, K^+-ATPase [4]; Log[drug](M) −6.0) [%] | inhibition at 1 µM (Na^+, K^+-ATPase [4]; Log[drug](M) −6.3) [%] | inhibition at 5 µM (Na^+, K^+-ATPase [4]) [%] | inhibition at 10 µM (Na^+, K^+-ATPase [4]) [%] | inhibition at 50 µM (Na^+, K^+-ATPase [4]) [%] | Rank order (Na^+, K^+-ATPase [4]) | Sample Solubility (Na^+, K^+-ATPase [4]) | Inhibition (%) (Na^+, K^+-ATPase [2]; dose 1.0 uM) | Normalized Uptake (%) (Na^+, K^+-ATPase [2]; dose 1.0 uM) | Inhibition (%) (Na^+, K^+-ATPase [2]; dose 5.0 uM) | Normalized Uptake (%) (Na^+, K^+-ATPase [2]; dose 5.0 uM) | Inhibition (%) (Na^+, K^+-ATPase [2]; dose 10 uM) | other results
1 | C[C@@H]1O[C@@H](O[C@H]2C[C@@H](O)[C@]3(CO)[C@H]4[C@H](O)C[C@]5(C)[C@@H](C6=CC(=O)OC6)CC[C@]5(O)[C@@H]4CC[C@]3(O)C2)[C@H](O)[C@H](O)[C@H]1O [BNC1, ouabain] | – | – | – | – | – | – | – | – | – | – | – | – | – | – | – | – | – | – | – | – | max. plasma concentration [1]: about 0.03 μg/mL
2 | C[C@]12CCC(=NOCCN3CCOCC3)C=C1CCC1C2CC[C@]2(C)[C@@H](c3ccc(=O)oc3)CC[C@]12O (stereo partly shown) [BP245, 3-[2-(Morpholinoethoxy)imino]-scillarinone] | Good | 93.2 | 0 | 98.9 | 0.732 | 0 | 22.1 | 8.3 | 56 | 36 | 92.3 | 94.1 | 100 | 2 | Good | – | – | – | – | – | inhibition at 1 µM (Na^+, K^+-ATPase [3]): 2.9%; inhibition at 5 µM (Na^+, K^+-ATPase [3]): 4.2%; inhibition at 10 µM (Na^+, K^+-ATPase [3]): 6.6%; inhibition at 50 µM (Na^+, K^+-ATPase [3]): 23.7%; inhibition at 100 µM (Na^+, K^+-ATPase [3]): 44.9%; inhibition at 200 µM (Na^+, K^+-ATPase [3]): 86.5%; inhibition at 500 µM (Na^+, K^+-ATPase [3]): 100%; remaining activity at 1 µM (Na^+, K^+-ATPase [3]): 96.9%; remaining activity at 5 µM (Na^+, K^+-ATPase [3]): 96%; remaining activity at 10 µM (Na^+, K^+-ATPase [3]): 94.3%; remaining activity at 50 µM (Na^+, K^+-ATPase [3]): 82.4%; remaining activity at 100 µM (Na^+, K^+-ATPase [3]): 67.6%; remaining activity at 200 µM (Na^+, K^+-ATPase [3]): 38.7%; remaining activity at 500 µM (Na^+, K^+-ATPase [3]): 29.3%
3 | C[C@]12CCC(=NOCCCN3CCCCC3)C=C1CCC1C2CC[C@]2(C)[C@@H](c3ccc(=O)oc3)CC[C@]12O (stereo partly shown) [BP246, 3-[3-(Piperidinopropoxy)imino]-scillarinone] | Good | 57.8 | 0 | 95.3 | 0.335 | 0 | 28.5 | 13.9 | 79.1 | 48.5 | 96.3 | 96.1 | 100 | 1 | Good | – | – | – | – | – | inhibition at 1 µM (Na^+, K^+-ATPase [3]): 2.2%; inhibition at 5 µM (Na^+, K^+-ATPase [3]): 12%; inhibition at 10 µM (Na^+, K^+-ATPase [3]): 21.5%; inhibition at 50 µM (Na^+, K^+-ATPase [3]): 42%; inhibition at 100 µM (Na^+, K^+-ATPase [3]): 64.7%; inhibition at 200 µM (Na^+, K^+-ATPase [3]): 89.3%; inhibition at 500 µM (Na^+, K^+-ATPase [3]): 100%; remaining activity at 1 µM (Na^+, K^+-ATPase [3]): 93.4%; remaining activity at 5 µM (Na^+, K^+-ATPase [3]): 84.8%; remaining activity at 10 µM (Na^+, K^+-ATPase [3]): 76.6%; remaining activity at 50 µM (Na^+, K^+-ATPase [3]): 58.7%; remaining activity at 100 µM (Na^+, K^+-ATPase [3]): 39%; remaining activity at 200 µM (Na^+, K^+-ATPase [3]): 17.5%; remaining activity at 500 µM (Na^+, K^+-ATPase [3]): 8.2%
4 | C[C@]12CCC(=NOCCCCN3CCCCC3)C=C1CCC1C2CC[C@]2(C)[C@@H](c3ccc(=O)oc3)CC[C@]12O (stereo partly shown) [BP247, 3-[4-(Piperidinobutoxy)imino]-scillarinone] | Good | 47.4 | 0 | 96 | 0.183 | 0 | 44.9 | 17.1 | 79.9 | 68.4 | 94.8 | 93.5 | 100 | 1 | Good | −0.3 | 96.2 | 9.2 | 88.2 | 15.2 | Normalized Uptake (%) (Na^+, K^+-ATPase [2]; dose 10 uM): 83.2%; Inhibition (%) (Na^+, K^+-ATPase [2]; dose 50 uM): 44.9%; Normalized Uptake (%) (Na^+, K^+-ATPase [2]; dose 50 uM): 58.3%; Inhibition (%) (Na^+, K^+-ATPase [2]; dose 100 uM): 67.7%; Normalized Uptake (%) (Na^+, K^+-ATPase [2]; dose 100 uM): 39.0%; Inhibition (%) (Na^+, K^+-ATPase [2]; dose 200 uM): 89.0%; Normalized Uptake (%) (Na^+, K^+-ATPase [2]; dose 200 uM): 21.1%; Inhibition (%) (Na^+, K^+-ATPase [2]; dose 500 uM): 100.0%; Normalized Uptake (%) (Na^+, K^+-ATPase [2]; dose 500 uM): 11.9%
5 | C[C@]12CCC(=NOCCCCCN3CCCCC3)C=C1CCC1C2CC[C@]2(C)[C@@H](c3ccc(=O)oc3)CC[C@]12O (stereo partly shown) [BP248, 3-[5-(Piperidinopentoxy)imino]-scillarinone] | Good | 27.9 | – | – | 5.55 | 0 | 1.7 | 0.8 | 10.1 | 4.5 | 44.7 | 74 | 100 | 4 | Good | 0.0 | 105.6 | 9.1 | 96.6 | 27.0 | Inhibition (%) (Na^+, K^+-ATPase [2]; dose 0.50 uM): 1.3%; Normalized Uptake (%) (Na^+, K^+-ATPase [2]; dose 0.50 uM): 104.5%; Normalized Uptake (%) (Na^+, K^+-ATPase [2]; dose 10 uM): 81.1%; Inhibition (%) (Na^+, K^+-ATPase [2]; dose 50 uM): 61.2%; Normalized Uptake (%) (Na^+, K^+-ATPase [2]; dose 50 uM): 51.5%; Inhibition (%) (Na^+, K^+-ATPase [2]; dose 100 uM): 84.1%; Normalized Uptake (%) (Na^+, K^+-ATPase [2]; dose 100 uM): 31.6%; Inhibition (%) (Na^+, K^+-ATPase [2]; dose 200 uM): 94.0%; Normalized Uptake (%) (Na^+, K^+-ATPase [2]; dose 200 uM): 23.1%; Inhibition (%) (Na^+, K^+-ATPase [2]; dose 500 uM): 100.0%; Normalized Uptake (%) (Na^+, K^+-ATPase [2]; dose 500 uM): 17.9%
6 | C[C@H]1O[C@@H](O[C@H]2[C@@H](O)C[C@H](O[C@H]3[C@@H](O)C[C@H](O[C@H]4CC[C@@]5(C)[C@H](CC[C@@H]6[C@@H]5CC[C@]5(C)[C@@H](C7=CC(=O)OC7)CC[C@]65O)C4)O[C@@H]3C)O[C@@H]2C)C[C@H](O)[C@@H]1O [Digitoxin, reference compound] | – | 44.9 | – | – | 1.1 | – | – | – | – | – | – | – | – | 2 | – | 6.2 | 93.8 | 8.6 | 91.4 | 19.8 | Inhibition (%) (Na^+, K^+-ATPase [2]; dose 0.50 uM): 0.0%; Normalized Uptake (%) (Na^+, K^+-ATPase [2]; dose 0.50 uM): 100.0%; Normalized Uptake (%) (Na^+, K^+-ATPase [2]; dose 10 uM): 80.2%; Inhibition (%) (Na^+, K^+-ATPase [2]; dose 50 uM): 51.9%; Normalized Uptake (%) (Na^+, K^+-ATPase [2]; dose 50 uM): 48.1%; Inhibition (%) (Na^+, K^+-ATPase [2]; dose 100 uM): 76.8%; Normalized Uptake (%) (Na^+, K^+-ATPase [2]; dose 100 uM): 23.2%; Inhibition (%) (Na^+, K^+-ATPase [2]; dose 500 uM): 89.7%; Normalized Uptake (%) (Na^+, K^+-ATPase [2]; dose 500 uM): 10.3%; Inhibition (%) (Na^+, K^+-ATPase [2]; dose 1000 uM): 100.0%; Normalized Uptake (%) (Na^+, K^+-ATPase [2]; dose 1000 uM): 0.0%
